In patent publication US20240280565A1, “EX VIVO HUMAN MODEL INTENDED FOR EVALUATING ALLERGIC OR PSEUDO-ALLERGIC INFLAMMATORY POTENTIAL” (GENOSKIN, priority 2021, published 2024):
Non-standard residues stand in square brackets, D forms with d. Residues, ends and D or L forms follow the SMILES beside them. dPhe(4-Cl) = N[C@H](Cc1ccc(Cl)cc1)C(=O)O; d2Nal = N[C@H](Cc1ccc2ccccc2c1)C(=O)O; dCit = NC(=O)NCCC[C@@H](N)C(=O)O; d3Pal = N[C@H](Cc1cccnc1)C(=O)O

System: skin explant
Assay: Inflammatory potential: cytokine assay in culture medium or matrix of injected skin explant
Type: cell-based, human
Conditions: 100 μL CETROTIDE solution, cetrorelix 0.25 mg/l mL, injected into adipose tissue of explant
Description: A CETROTIDE solution of 100 μL with a cetrorelix concentration of 0.25 mg/l mL (luteinizing hormone inhibitor that competes by binding to its receptor) was injected into the adipose tissue of an explant, as described previously, using a syringe and a 12 mm long, 27 G needle. As a negative and positive control, 100 μL of a PBS solution and 100 μL of a concentrated solution of compound 48/80 (50 μg/mL, an MRGPRX2 agonist), respectively, were each injected into the adipose tissue of different explants, as described previously.
The culture medium or matrix supporting the explants are collected and an assay of cytokines is conducted using an ELISA-type methods or any other type of method intended to detect and quantify the presence of cytokines.

For CC(=O)N[C@H](Cc1ccc2ccccc2c1)C(=O)N[C@H](Cc1ccc(Cl)cc1)C(=O)N[C@H](Cc1cccnc1)C(=O)N[C@@H](CO)C(=O)N[C@@H](Cc1ccc(O)cc1)C(=O)N[C@H](CCCNC(N)=O)C(=O)N[C@@H](CC(C)C)C(=O)N[C@@H](CCCNC(=N)N)C(=O)N1CCC[C@H]1C(=O)N[C@H](C)C(N)=O [cetrorelix] (Ac-[d2Nal][dPhe(4-Cl)][d3Pal]SY[dCit]LRP[dA]-NH2), which “Inflammatory potential (cytokines)” value is on record?
The value was “confirmed the inflammatory potential”.
